This is an account of results in patent US20230181464A1, “COMPOSITIONS FOR DELIVERY OF BIOACTIVE AGENTS INTO HAIR FOLLICLES” (FOLLICLE PHARMA LTD, priority 2020, published 2023).

The conditions of data set [1]: cited from earlier work.
Data set [2] has as its system C57bl mice. The data set is described as follows: Testosterone-induced alopecia model in mice, hair cover (Example 2). In kind it is in vivo. The conditions noted are these: oral, 100 uL once daily; testosterone-injected mice.
In data set [3] the test system is C57bl mice. Description: Testosterone-induced alopecia in mice, hair cover over 28 d (Example 3). Type of data set: in vivo. Particulars: oral once daily. As to the method:
(§1) Hair on the backs of C57bl mice were shaved with electric clippers and subsequent application of ‘hair removal cream’ (Veet, Oxy Reckit Benckiser, Chartes, France). Twenty-four hours following hair removal, mice received daily subcutaneous injections of Testosterone, 1 mg/mouse, at the neck region. Twenty-four hours after the first Testosterone injection mice started receiving treatment as per Table 6 below. Topical formulations were applied onto the entire shaved back skin. The hair cover was analyzed by ImagJ software.

The subject of data set [4] is DHT (dihydrotestosterone). Description: Skin DHT expression at Day 28 (Example 3). In kind it is in vivo, mice. As to the method: as §1
The nature of data set [5]: Blood concentration of dutasteride at Day 28 (Example 3). Particulars: C57bl, mice, Oral, daily dose 5-10 ug/mouse, read-out: Blood conc (ng/ml) of dutasteride. Type of data set: in vivo.
The conditions of data set [6]: Human, 0.5 mg PO, from the literature; cited from earlier work.
[7] abbreviates: drug substance listed in Table 16.

Each structure is given as a SMILES string. Read-outs that look alike come from different tables or passages of the source.

Take `C1=C/COCc2cc(ccc2OCCN2CCCC2)Nc2nccc(n2)-c2cccc(c2)COC/1` [Pacritinib]: the logP result in data set [1] (setting [7]) is given as “logP 4.58”.

In the case of `CCOC(=O)c1ccc(C#Cc2ccc3c(c2)C(C)(C)CCS3)nc1` [Tazarotene], the logP entry in data set [1] (setting [7]) was “logP 5.6”.

As for `O=C(Nc1c(Cl)cncc1Cl)c1ccc(OC(F)F)c(OCC2CC2)c1` [Roflumilast], the logP result in data set [1] (setting [7]) was “logP 4.47”.

Turning to `C[C@]12C=CC(=O)N[C@@H]1CC[C@@H]1[C@@H]2CC[C@]2(C)[C@@H](C(=O)Nc3cc(C(F)(F)F)ccc3C(F)(F)F)CC[C@@H]12` [dutasteride], in the data set on C57bl mice [2], the “% hair cover at 21 days” value was 30%. The “Group Mean Hair cover (%)” value with C57bl mice [3] (Study Day 0) is 0.0%; in the data set on C57bl mice [3] (Study Day 7), 0.0%; with C57bl mice [3] (Study Day 14) it was 2.3%; in the data set on C57bl mice [3] (Study Day 21), 5.2%; in the data set with C57bl mice [3] (Study Day 28), 22.3%. The “DHT expression in the skin (in words)” value in data set [4] (mice) is recorded as “did not exhibit reduced concentrations of DHT in the skin”. Besides, the “Mean DHT conc. (nmol/L)/group” value in data set [4] (skin, oral 5-10 ug/mouse x 1/d) amounted to 22.91 nmol/L. In addition, the concentration at 28 day in data set [5] amounted to 39 ng/mL. Besides, the “Plasma Concentration of Dutasteride” value in data set [6] was 23.60 ng/mL.

Take `N#CC[C@H](C1CCCC1)n1cc(-c2ncnc3[nH]ccc23)cn1` [Ruxolitinib]: in data set [1], the logP result is “Ruxolitinib logP, 2.48”.

Take `O=C(OOC(=O)c1ccccc1)c1ccccc1` [Benzoyl peroxide]: the logP entry in data set [1] (setting [7]) was “LogP 2.75”.

In the case of `CC(C)(C)NC(=O)[C@H]1CC[C@H]2[C@@H]3CC[C@H]4NC(=O)C=C[C@]4(C)[C@H]3CC[C@]12C` [Oral finasteride, finasteride], the “% hair cover at 21 days” value in the data set on C57bl mice [2] was found to be 20%.

For the molecule `CC(=O)Oc1c(C)c(C)c2c(c1C)CCC(C)(CCC[C@H](C)CCC[C@H](C)CCCC(C)C)O2` (some centres unmarked) [Tocopherol acetate], the logP entry in data set [1] (setting [7]) is recorded as “acetate LogP 10.8”.
